Reference: patent US20260132127A1, “NOVEL SPIRO COMPOUND” (MITSUBISHI TANABE PHARMA CORPORATION, priority 2021, published 2026)

Biological target: T1, human TRH-DE (Homo sapiens, UniProt Q9UKU6)
T1 construct: expressed in transfected cells; host or cells: Expi 293 cells (transient expression), membrane fraction
T1 sequence (Q9UKU6 1-1069): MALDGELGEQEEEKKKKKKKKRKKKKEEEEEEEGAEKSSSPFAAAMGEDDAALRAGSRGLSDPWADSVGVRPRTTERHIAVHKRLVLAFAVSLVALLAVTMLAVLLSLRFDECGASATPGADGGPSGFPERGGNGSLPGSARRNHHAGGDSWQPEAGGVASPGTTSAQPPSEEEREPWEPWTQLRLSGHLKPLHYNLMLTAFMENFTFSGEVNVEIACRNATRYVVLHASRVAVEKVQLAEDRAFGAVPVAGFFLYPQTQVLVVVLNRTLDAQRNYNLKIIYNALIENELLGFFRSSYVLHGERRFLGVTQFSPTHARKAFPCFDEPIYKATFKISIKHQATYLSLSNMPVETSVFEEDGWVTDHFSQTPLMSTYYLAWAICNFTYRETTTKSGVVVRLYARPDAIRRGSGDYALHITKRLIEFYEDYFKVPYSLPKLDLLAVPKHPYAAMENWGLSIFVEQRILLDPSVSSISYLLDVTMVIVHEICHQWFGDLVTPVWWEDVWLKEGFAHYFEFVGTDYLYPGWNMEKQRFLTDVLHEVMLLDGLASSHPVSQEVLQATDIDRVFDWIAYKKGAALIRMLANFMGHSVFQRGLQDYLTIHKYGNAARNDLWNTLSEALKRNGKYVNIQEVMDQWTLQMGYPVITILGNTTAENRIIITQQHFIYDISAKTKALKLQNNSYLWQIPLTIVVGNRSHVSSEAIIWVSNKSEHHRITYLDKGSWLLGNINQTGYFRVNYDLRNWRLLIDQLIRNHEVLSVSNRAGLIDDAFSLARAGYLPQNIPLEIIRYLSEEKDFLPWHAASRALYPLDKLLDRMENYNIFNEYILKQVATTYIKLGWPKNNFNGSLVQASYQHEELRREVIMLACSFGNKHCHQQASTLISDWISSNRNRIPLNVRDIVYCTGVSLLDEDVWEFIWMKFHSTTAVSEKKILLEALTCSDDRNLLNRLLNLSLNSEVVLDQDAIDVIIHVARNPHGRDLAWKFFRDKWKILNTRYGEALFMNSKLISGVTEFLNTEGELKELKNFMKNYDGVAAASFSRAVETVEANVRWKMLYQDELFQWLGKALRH
Test: TRH-DE inhibition test (RapidFire MS measurement of product Cyclo (His-Pro))
Format: biochemical
Settings: membrane fraction of Expi 293 cells expressing human TRH-DE; 10 μM TRH substrate; room temperature, 2 hours; 16-point concentration test
Method in brief: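 Inhibition derived from product/internal-standard ratios of Cyclo(His-Pro), quantified by RapidFire triple-quadrupole MS after acetonitrile:methanol quench, with IC50 fitted over 16 concentrations. Enzyme source: membranes of Expi 293 cells transiently expressing human TRH-DE, 4 μg/ml, pH 7.4 phosphate buffer. Incubation with 10 μM substrate ran 2 h at room temperature.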

Q: For `COc1ccc2c(n1)CCC(C)N(C1CC3(C1)CN(S(=O)(=O)c1ccccc1F)C3)C2=O` (racemic) [Example 249, 6-[2-(2-fluorophenyl)sulfonyl-2-azaspiro[3.3]heptan-6-yl]-2-methoxy-7-methyl-8,9-dihydro-7H-pyrido[3,2-c]azepin-5-one], which IC50 is on record?
A: 0.112 µM

Q: With `Cc1cc2c(cn1)C(=O)N(C1CC3(C1)CN(S(=O)(=O)c1ccccc1F)C3)[C@H](C)CO2` [Example 312] as the compound, how does the IC50 read?
A: 0.002 µM

Q: With `CC1Cc2ncccc2C(=O)N1C1CC2(C1)CN(S(=O)(=O)c1ccccc1F)C2` (racemic) [Example 66] as the compound, how does the IC50 read?
A: 0.031 µM

Q: Which IC50 does the source give for `CC1C=Cc2nc(C3CC3)sc2C(=O)N1C1CC2(C1)CN(S(=O)(=O)c1ccccc1F)C2` (racemic) [Example 119] here?
A: 0.013 µM

Q: Which IC50 does the source give for `C[C@@H]1COc2cc(N(C)c3ccc(F)cc3)ncc2C(=O)N1C1CC2(C1)CN(S(=O)(=O)c1ccccc1F)C2` [Example 141] here?
A: 0.001 µM

Q: For `C[C@@H]1COc2nc(N3CC[C@@H](C#N)C3)ncc2C(=O)N1C1CC2(C1)CN(S(=O)(=O)c1ccccc1F)C2` [Example 402], which IC50 is on record?
A: 0.003 µM

Q: With `C[C@@H]1COc2cc(N3CCC(F)CC3)ncc2C(=O)N1C1CC2(C1)CN(S(=O)(=O)c1ccccc1F)C2` [Example 155] as the compound, how does the IC50 read?
A: 0.001 µM

Q: For `C[C@@H]1COc2nc(OC(F)(F)F)ccc2C(=O)N1C1CC2(C1)CN(S(=O)(=O)c1ccccc1F)C2` [Example 35], which IC50 is on record?
A: 0.007 µM

Q: For `C[C@@H]1COc2cc(NC3CCCC3)ncc2C(=O)N1C1CC2(C1)CN(S(=O)(=O)c1ccccc1F)C2` [Example 136], which IC50 is on record?
A: 0.001 µM

Q: Which IC50 does the source give for `C[C@@H]1CCn2c(nnc2C2CC2)C(=O)N1C1CC2(C1)CN(S(=O)(=O)c1ccccc1F)C2` [Example 261] here?
A: 0.028 µM

Q: `C[C@@H]1COc2nc(N3CCCCC3)ncc2C(=O)N1C1CC2(C1)CN(S(=O)(=O)c1ccccc1F)C2` [Example 382] was tested. Which IC50 did it give?
A: 0.004 µM

Q: For `COc1nc2c(cc1F)C(=O)N(C1CC3(C1)CN(S(=O)(=O)c1ccccc1F)C3)[C@H](C)CO2` [Example 167, (3R)-7-fluoro-4-[2-(2-fluorophenyl)sulfonyl-2-azaspiro[3.3]heptan-6-yl]-8-methoxy-3-methyl-2,3-dihydropyrido[3,2-f][1,4]oxazepin-5-one], which IC50 is on record?
A: 0.016 µM

Q: How did the IC50 turn out when `Cc1snc2c1CC[C@@H](C)N(C1CC3(C1)CN(S(=O)(=O)c1ccccc1F)C3)C2=O` [Example 99] was run?
A: 0.016 µM

Q: Which IC50 does the source give for `CC1CCC(=O)N(C2CC3(C2)CN(S(=O)(=O)c2ccccc2F)C3)C(C)C1` (racemic) [Example 439] here?
A: 0.124 µM

Q: `C[C@@H]1COc2nc(N3[C@@H]4CC[C@H]3COC4)ncc2C(=O)N1C1CC2(C1)CN(S(=O)(=O)c1ccccc1F)C2` [Example 389] was tested. Which IC50 did it give?
A: 0.012 µM

Q: How did the IC50 turn out when `C[C@@H]1COc2nc(OC3CCCC3)ncc2C(=O)N1C1CC2(C1)CN(S(=O)(=O)c1ccccc1F)C2` [Example 372] was run?
A: 0.004 µM

Q: Which IC50 does the source give for `C[C@@H]1COc2nc(C3CC3)ncc2C(=O)N1C1CC2(C1)CN(S(=O)(=O)c1ccccc1F)C2` [Example 331, (7R)-2-cyclopropyl-6-[2-(2-fluorophenyl)sulfonyl-2-azaspiro[3.3]heptan-6-yl]-7-methyl-7,8-dihydropyrimido[5,4-f][1,4]oxazepin-5-one] here?
A: 0.003 µM

Q: With `Cc1ccc2c(n1)C(=O)N(C1CC3(C1)CN(S(=O)(=O)c1ccccc1F)C3)C(C)CO2` (racemic) [Example 14] as the compound, how does the IC50 read?
A: 0.024 µM

Q: `C[C@@H]1Cn2nc(C3(F)CC3)cc2C(=O)N1C1CC2(C1)CN(S(=O)(=O)c1ccccc1F)C2` [Example 226] was tested. Which IC50 did it give?
A: 0.016 µM

Q: With `CC1COc2nc(F)ccc2C(=O)N1C1CC2(C1)CN(S(=O)(=O)c1ccccc1F)C2` (racemic) [Example 28] as the compound, how does the IC50 read?
A: 0.023 µM

Q: `CC1CCc2nc(C3CC3)sc2C(=O)N1C1CC2(C1)CN(S(=O)(=O)c1ccccc1F)C2` (racemic) [Example 93] was tested. Which IC50 did it give?
A: 0.004 µM

Q: With `C[C@@H]1COc2ccncc2C(=O)N1C1CC2(C1)CN(S(=O)(=O)c1ccccc1F)C2` [Example 19] as the compound, how does the IC50 read?
A: 0.002 µM

Q: `C[C@@H]1CCN(C(=O)c2cc[nH]n2)CC(=O)N1C1CC2(C1)CN(S(=O)(=O)c1ccccc1F)C2` [Example 449] was tested. Which IC50 did it give?
A: 0.065 µM

Q: Which IC50 does the source give for `O=C1c2ccccc2C2(CC2)N1C1CC2(C1)CN(S(=O)(=O)c1ccccc1F)C2` [Example 244] here?
A: 0.042 µM

Q: Which IC50 does the source give for `CC1c2cc(F)ccc2C(=O)N1C1CC2(C1)CN(S(=O)(=O)c1ccccc1F)C2` (racemic) [Example 269] here?
A: 0.134 µM

Q: For `C[C@@H]1Cn2cc(C3CC3)nc2C(=O)N1C1CC2(C1)CN(S(=O)(=O)c1ccccc1F)C2` [Example 330], which IC50 is on record?
A: 0.019 µM

Q: How did the IC50 turn out when `Cc1cnc2c(c1)C(=O)N(C1CC3(C1)CN(S(=O)(=O)c1ccccc1F)C3)C(C)CO2` (racemic) [Example 30] was run?
A: 0.015 µM

Q: For `CC1CSCC(=O)N1C1CC2(C1)CN(S(=O)(=O)c1ccccc1F)C2` (centres unmarked) [Example 441, 4-[2-(2-fluorophenyl)sulfonyl-2-azaspiro[3.3]heptan-6-yl]-5-methylthiomorpholin-3-one], which IC50 is on record?
A: 0.247 µM

Q: With `C[C@@H]1COc2cc(N3CCCC(F)(F)C3)ncc2C(=O)N1C1CC2(C1)CN(S(=O)(=O)c1ccccc1F)C2` [Example 157] as the compound, how does the IC50 read?
A: 0.001 µM

Q: `C[C@@H]1COc2nc(OC3CCOCC3)ncc2C(=O)N1C1CC2(C1)CN(S(=O)(=O)c1ccccc1F)C2` [Example 375] was tested. Which IC50 did it give?
A: 0.011 µM

Q: `CCC1(O)c2ccccc2C(=O)N1C1CC2(C1)CN(S(=O)(=O)c1ccccc1)C2` (racemic) [Example 285] was tested. Which IC50 did it give?
A: 0.955 µM

Q: How did the IC50 turn out when `C[C@@H]1COc2nccnc2C(=O)N1C1CC2(C1)CN(S(=O)(=O)c1ccccc1F)C2` [Example 8, (7R)-8-[2-(2-fluorophenyl)sulfonyl-2-azaspiro[3.3]heptan-6-yl]-7-methyl-6,7-dihydropyrazino[2,3-f][1,4]oxazepin-9-one] was run?
A: 0.013 µM

Q: For `C[C@@H]1COc2nc(N3CC(C#N)C3)ncc2C(=O)N1C1CC2(C1)CN(S(=O)(=O)c1ccccc1F)C2` [Example 411], which IC50 is on record?
A: 0.008 µM

Q: With `C[C@@H]1COc2nc(N3C[C@H]4C[C@@H]3C4)ncc2C(=O)N1C1CC2(C1)CN(S(=O)(=O)c1ccccc1F)C2` [Example 403] as the compound, how does the IC50 read?
A: 0.003 µM

Q: For `C[C@@H]1CNc2nc(C3CC3)ccc2C(=O)N1C1CC2(C1)CN(S(=O)(=O)c1ccccc1F)C2` [Example 258, (3R)-8-cyclopropyl-4-[2-(2-fluorophenyl)sulfonyl-2-azaspiro[3.3]heptan-6-yl]-3-methyl-2,3-dihydro-1H-pyrido[2,3-e][1,4]diazepin-5-one], which IC50 is on record?
A: 0.001 µM

Q: With `C[C@@H]1COc2nc(N3C[C@H]4COC[C@H]4C3)ncc2C(=O)N1C1CC2(C1)CN(S(=O)(=O)c1ccccc1F)C2` [Example 388] as the compound, how does the IC50 read?
A: 0.004 µM

Q: With `CC1COc2ccsc2C(=O)N1C1CC2(C1)CN(S(=O)(=O)c1ccccc1F)C2` (racemic) [Example 64] as the compound, how does the IC50 read?
A: 0.01 µM

Q: Which IC50 does the source give for `CC1CCOC(=O)N1C1CC2(C1)CN(S(=O)(=O)c1ccccc1F)C2` (centres unmarked) [Example 433, 3-[2-(2-fluorophenyl)sulfonyl-2-azaspiro[3.3]heptan-6-yl]-4-methyl-1,3-oxazinan-2-one] here?
A: 0.868 µM

Q: For `C[C@H]1CCn2nc(C3(F)CC3)cc2C(=O)N1C1CC2(C1)CN(S(=O)(=O)c1ccccc1F)C2` [Example 191], which IC50 is on record?
A: 0.086 µM

Q: For `C[C@@H]1COc2cc(N(C)Cc3ccccc3)ncc2C(=O)N1C1CC2(C1)CN(S(=O)(=O)c1ccccc1F)C2` [Example 139], which IC50 is on record?
A: 0.002 µM

Q: `C[C@@H]1CCn2cncc2C(=O)N1C1CC2(C1)CN(S(=O)(=O)c1ccccc1F)C2` [Example 309, (7R)-8-[2-(2-fluorophenyl)sulfonyl-2-azaspiro[3.3]heptan-6-yl]-7-methyl-6,7-dihydro-5H-imidazo[1,5-a][1,4]diazepin-9-one] was tested. Which IC50 did it give?
A: 0.032 µM

Q: `Cc1nsc2c1C(=O)N(C1CC3(C1)CN(S(=O)(=O)c1ccccc1F)C3)[C@H](C)CC2` [Example 100] was tested. Which IC50 did it give?
A: 0.016 µM

Q: With `CC1COc2ncccc2C(=O)N1C1CC2(C1)CN(S(=O)(=O)c1cccc(F)c1)C2` (racemic) [Example 72] as the compound, how does the IC50 read?
A: 0.841 µM

Q: Which IC50 does the source give for `CC1C=Cc2nc(C3CC3)oc2C(=O)N1C1CC2(C1)CN(S(=O)(=O)c1ccccc1F)C2` (racemic) [Example 129] here?
A: 0.021 µM

Q: Which IC50 does the source give for `C[C@@H]1COc2cc(Br)cnc2C(=O)N1C1CC2(C1)CN(S(=O)(=O)c1ccccc1F)C2` [Example 18] here?
A: 0.001 µM

Q: With `CC1COc2cccnc2C(=O)N1C1CC2(C1)CN(S(=O)(=O)c1ccccc1F)C2` (racemic) [Example 49] as the compound, how does the IC50 read?
A: 0.006 µM

Q: For `C[C@@H]1COc2nc(C(F)(F)F)ccc2C(=O)N1C1CC2(C1)CN(S(=O)(=O)c1ccccc1F)C2` [Example 56], which IC50 is on record?
A: 0.008 µM
